Source: patent EP2077851B1, “A PHARMACEUTICAL COMPOSITION COMPRISING CORDYCEPIN FOR THE TREATMENT AND PREVENTION OF OBESITY” (priority 2006, dated 2008)
Like-named read-outs stand apart in the source and are kept apart here.

Tests used:
[1] = cited from earlier work
3T3-L1 cells [2] = assay: Triacylglycerol synthesis in 3T3-L1 cells (intracellular triacylglycerol per unit weight of protein); assay type: cell-based
Procedure: A measurement was made to find the effect of cordycepin on the synthesis of triacylglycerol (TAG). First, the cells in each group were detached using a Tris-EDTA buffer and disrupted with an ultrasonicator. A calibration curve for a standard solution was made according to the protocol of a BCA protein assay kit. The cell lysates were diluted in the kit reagent and warmed at 37°C for 30 min. Then, within 10 min, the solutions were measured for absorbance at 562 nm to quantify protein. Separately, according to the protocol of a BCS triacylglycerol kit, the cell lysates were diluted in the kit reagent and warmed at 37°C for 10 min. Then, within 60 min, the absorbance of the solutions was measured at 550 nm against a reagent blank. The amount of intracellular triacylglycerol per unit weight of protein (µg/mg) was calculated according to a calculation formula.
For the preliminary investigation of the mode of action of cordycepin on differentiation and TAG synthesis, adenosine, one of several cordycepin homologues, was added to the submerged medium for differentiation at the time of initiating differentiation at the same molar concentration as cordycepin (32 µM).

C/EBPα = assay: Western blot analysis of protein expression in 3T3-L1 cells; assay type: cell-based; details: FIG. 8
Procedure: (§1) Western blot analysis was performed in order to examine the effect of cordycepin on the expression of C/EBPα, PPARγ, and anti-leptin, the essential factors involved in adipogenesis and lipogenesis.
(§2) 3T3-L1 cells cultured in 6-well dishes were rinsed three times with ice-cold PBS, scraped into 0.5 ml of PBS, and centrifuged at 14,000 rpm for 1 min. Cell pellets were resuspended in 0.2 ml ice-cold RIPA buffer (50 mM Tris-HCl, pH 7.4, 150 mM NaCl, 1 mM EDTA, 1% NP 40, 0.25 % deoxycholate) and protease inhibitors (Complete Mini Protease Inhibitor Tablets, Roche, Indianapolis, IN). Suspensions were sheared through a 20-gauge needle, incubated on ice for 30 min and centrifuged at 14,000 rpm at 4°C for 20 min. Supernatants were collected and the protein concentration was determined using a BCA assay kit. Cell lysates were mixed with an equal volume of Laemmli SDS loading buffer (Bio-Rad Laboratories, Hercules, CA), equal amounts of lysate protein ([…]) were loaded onto SDS-PAGE, and electrophoresis was carried out before the protein was transferred to a nitrocellulose membrane (Bio-Rad Laboratories, Hercules, CA). The membranes were blocked for 1 h in PBS containing 0.05% Tween-20 (USB corp., Cleveland, USA) and 5% nonfat dry milk. The membranes were incubated with antibodies against C/EBPα, PPARγ (Santa Cruz, CA) and anti-leptin (Sigma) for 1 hour, followed by three 10 min washes in PBS/Tween-20. The blots were subsequently treated with appropriate secondary antibodies conjugated to horseradish peroxidase for 1 hour at room temperature, and washed with PBS-T three times for 10 min. To visualize reaction complexes, an enhanced chemiluminescence system (ECL, Amersham International plc, Little Chalfont Buckinghamshire, England) was used, and reaction complexes were exposed to X-ray film.

anti-leptin = assay: as above; assay type: cell-based; details: 32 µM, differentiated 3T3-L1 cells, FIG. 8
Procedure: as §1, §2

PPARγ = assay: as above; assay type: cell-based; details: FIG. 8
Procedure: as §1, §2

3T3-L1 cells [3] = assay: Differentiation of 3T3-L1 fibroblast cells into adipocytes (oil red O staining); assay type: cell-based
Procedure: Fibroblast cells (3T3-L1 cells) were cultured in 10 cm-culture dishes containing animal cell culture media (refer to Table 2, below) at 37°C in a 5% CO2 incubator, with the media replaced with fresh media every two or three days.
3T3-L1 cell line was purchased from the American Type Culture Collection (ATCC CL-173). The cells were grown and differentiated according to the protocol of Frost and Lane (Frost and Lane, 1985): 3T3-L1 preadipocytes were cultured in 100 mm plates containing a submerged medium for proliferation (DMEM supplemented with 10% BCS, 100 U/ml penicillin, and 100 µg/ml streptomycin) in an atmosphere of 5% CO2 at 37°C. When the cell become confluent, the cells were harvested, splitted in a 6-well plate to a cell number of 4.0×10^5 cells/ml and subsequently cultured until reaching confluence again. Two days after confluence, the cells were stimulated to differentiate into adipocytes by incubating for 2 days in the medium for stimulating differentiation (MSD, DMEM containing 1 µM DEX, 0.5 mM IBMX, and 10 µg/ml insulin), and maintained in the differentiated state in the medium for differentiation (MFD containing 10% BCS and 5 µg/ml insulin) for 7 days. MSD was freshly replaced every 48 hours and the comparison of the each medium composition used in this example was shown in Table 2.
Cordycepin was dissolved in the appropriate warm medium and added at the final concentration of 4, 16, and 32 µM.
Cells obtained in Example 1-1 were washed twice with PBS (pH 7.4), fixed with 10% formalin in PBS for 1 hour at room temperature and washed three times with distilled water. The cells were stained with filtered 0.5% oil red O for 10 min, and washed again with distilled water three times. The pictures of the stained cells were taken using an Olympus (CKX-41, Tokyo, Japan) microscope. The density of stained oil red O was measured using a spectrometer (DU-70, Beckman, Fullerton, CA) at 518 nm after the dye was extracted with propanol. […]

[4] = anti-obesity drugs, background knowledge
[5] = adenosine 32 µM, differentiated 3T3-L1 cells

CC(C)CC(N(C)C)C1(c2ccc(Cl)cc2)CCC1 (centres unmarked) [Sibutramine]
Side effect [1, 4]: Blood pressure increase, insomnia, xerostomia and vertigo. Prohibited to the patients with cardiovascular disease.

Thyroid hormone
Side effect [1, 4]: Hyperthyroidism caused

Nc1ncnc2c1ncn2[C@@H]1O[C@H](CO)[C@@H](O)[C@H]1O [adenosine]
inhibitory effect of cordycepin on TAG synthesis of 3T3-L1 cells (3T3-L1 cells [2]; adenosine 32 µM added together with cordycepin 32 µM at initiation of differentiation, FIG. 7): suppressed | C/EBPα level (C/EBPα; [5]): inhibited | expression levels of anti-leptin (anti-leptin): no significant effect | expression levels of PPARγ (PPARγ; [5]): no significant effect | inhibitory effect of cordycepin on differentiation of 3T3-L1 cells (3T3-L1 cells [3]; adenosine 32 µM added together with cordycepin 32 µM at initiation of differentiation, FIG. 6): suppressed

CCNC(C)Cc1cccc(C(F)(F)F)c1 (centres unmarked) [Fenfluramine]
Valvular dysfunction caused in persons administered in combination with other therapy ([1]; share of persons, sale prohibited in 1997): Valvular dysfunction caused in 35% of persons administered in combination with other therapy, sale prohibited in 1997.

NC1=NCC(c2ccccc2)O1 (centres unmarked) [Aminorex]
Side effect [1, 4]: Pulmonary hypertension caused

Nc1ncnc2c1ncn2[C@@H]1O[C@H](CO)C[C@H]1O [cordycepin, 3'-deoxyadenosine]
synthesis of triacylglycerol in 3T3-L1 cells (3T3-L1 cells [2]; cordycepin 4, 16 and 32 µM, FIG. 5): inhibits the synthesis of triacylglycerol in 3T3-L1 cells in a dose-dependent manner | expression levels of C/EBPα (C/EBPα; 32 µM, 3T3-L1 cells): inhibited | expression levels of anti-leptin (anti-leptin): inhibited | expression levels of PPARγ (PPARγ; 32 µM, 3T3-L1 cells): inhibited | differentiation of 3T3-L1 cells into adipose cells (3T3-L1 cells [3]; cordycepin 4, 16 and 32 µM, oil red O, 518 nm, FIG. 4): inhibits the differentiation of 3T3-L1 cells into adipose cells in a dose-dependent manner | differentiation of 3T3-L1 cells into adipocytes (3T3-L1 cells [3]; in the presence of 32 µM of cordycepin, FIG. 4): almost completely suppressed

CCCCCCCCCCC[C@@H](C[C@@H]1OC(=O)[C@H]1CCCCCC)OC(=O)[C@H](CC(C)C)NC=O [Orlistat]
Side effect [1, 4]: Diarrhea, fatty stool, fecal incontinence.

CC(N)Cc1ccccc1 (centres unmarked) [Amphetamine]
Side effect ([1]; in vivo): Addictive
